Measured values: patent US5075304A, “Imidazoquinoxaline compounds and their preparation and use” (Novo Nordisk A/S, priority 1988, dated 1991)

What follows are molecules tested on benzodiazepine receptors (assay: in vivo displacement of 3H-flunitrazepam binding from brain benzodiazepine receptors). Settings: dose reducing specific 3H-flunitrazepam binding in living mouse brain to 50% of control; test substance intraperitoneally 15 min before 3H-FNM i.v.
Design: species or system mice
Description: The pharmaceutical properties of the compounds of the invention can be illustrated by determining their capability for displacing radioactive labelled flunitrazepam from benzodiazepine receptors.
The displacement activity of the compounds of the invention may be found by determining the ED50 value. The ED50 value represents the dose (mg/kg) of a test substance which causes the specific binding of flunitrazepam to benzodiazepine receptors in a living brain to be reduced to 50% of the control value.
Such an in vivo test is carried out as follows:
Principle. Twenty minutes after a dose of ^3 H-flunitrazepam (^3 H-FNM) (200 μCi/kg, i.v.) the amount of specific ^3 H-FNM binding to brain benzodiazepine receptors has reached its maximal value.
Test procedure. Suspensions of test substances (2 mg/ml) are prepared in 5% Duphasol-X (TM Duphar, castor oil-ethylene oxide derivative for emulsifying and solubilizing oil and other water-insoluble substances) by sonification for 10 min using a Branson B15 microtip ultrasonifier (setting 7). Groups of three mice (female, NMR, 18-22 grams) are injected with the test substance at 100 mg/kg intraperitoneally. Fifteen minutes after test substance administration the mice are challenged with 4 μCi intravenously of ^3 H-FNM (70-90 Ci/mole) in 200 μl physiological saline. Twenty minutes after ^3 H-FNM administration mice are sacrificed by decapitation, the forebrains rapidly excised (within 30 sec) and homogenized in 12 ml of icecold 25 mM KH2 PO4, pH 7.1, using an Ultra-Turrax homogenizer fitted with an N 10 shaft. […] The amounts of radioactivity on the filters are determined by conventional scintillation counting. […]
Results. The ED50 value is determined from dose response curves. If only one dose of test substance is administered the ED50 value is calculated as follows, provided that the inhibition of specific binding is within the range of 25-75%: [formula] where Co is specific binding in controls and Cx is specific binding in mice treated with test substance.

Compound | ED50 [mg/kg]
O=c1c2c(-c3noc(C4CC4)n3)ncn2c2ccccc2n1Cc1ccccc1 [Compound 1, 5-benzyl-3-(5-cyclopropyl-1,2,4-oxadiazol-3-yl)-4,5-dihydro-4-oxo-imidazo[1,5-a]quinoxaline] | 1.2
Cn1c(=O)c2c(-c3noc(C4CC4)n3)ncn2c2cccc(C(F)(F)F)c21 [Compound 2, 3-(5-cyclopropyl-1,2,4-oxadiazol-3-yl)-4,5-dihydro-5-methyl-4-oxo-6-trifluoromethyl-imidazo[1,5-a]quinoxaline] | 0.09
Cn1c(=O)c2c(-c3nc(C4CC4)no3)ncn2c2cccc(C(F)(F)F)c21 [Compound 6, 3-(3-cyclopropyl-1,2,4-oxadiazol-5-yl)-4,5-dihydro-5-methyl-4-oxo-6-trifluoromethylimidazo[1,5-a]quinoxaline] | 0.21
